# Results from article PMC10307035, “Antiviral activity of singlet oxygen-photogenerating perylene compounds against SARS-CoV-2: Interaction with the viral envelope and photodynamic virion inactivation” (Virus Research, 2023).
# Where two headings read alike, the source gives them in different places.
# What was measured:
# Format in all cases: cell-based
# [1] = test system: SARS-CoV-2 (Wuhan variant); test: microbe, parasite or virus in culture; conditions: for inhibition of SARS-CoV-2 replication in virus-infected cells: 2 and 10 µM, Vero cells
# [2] = test system: SARS-CoV-2 variants Alpha (B.1.1.7), Beta (B.1.351), Gamma (p.1), Delta (B.1.617.2), and Omicron (B.1.1.529); conditions: 1 and 10 µM, 48 h, Vero cells
# [3] = test system: SARS-CoV-2 (Wuhan variant); test: Virucidal activity against SARS-CoV-2 (plaque assay); conditions: 10 µM, 120 min at 37 °C in the dark
# [4] = Severe acute respiratory syndrome coronavirus 2, Vero, 48 h, read-out: App. EC50
# [5] = Severe acute respiratory syndrome coronavirus 2, Vero, read-out: EC50
Structure (SMILES),"EC50 [1, 4] [µM]","EC50 [1, 5] [µM]",EC50 ([1]; read-out: EC50) [µM],replication of all tested SARS-CoV-2 variants [2],inhibition of SARS-CoV-2 replication in virus-infected cells [1],virucidal effect against SARS-CoV-2 (ranking) [3]
"O=c1[nH]c(=O)n([C@@H]2O[C@H](CO)[C@@H](O)[C@@H]2O)cc1C#Cc1ccc2c3cccc4cccc(c5cccc1c52)c43 [Compound 1, 5-(perylen-3-yl)ethynyl-arabino-uridine]",1.12,0.406,0.406,,,
"O=c1[nH]c(=O)n([C@H]2C[C@H](O)[C@@H](CO)O2)cc1C#Cc1ccc2c3cccc4cccc(c5cccc1c52)c43 [Compound 2, 5-(perylen-3-yl)ethynyl-2′-deoxy-uridine]",0.843,0.256,0.256,efficiently inhibited,,
O=c1[nH]cc(C#Cc2ccc3c4cccc5cccc(c6cccc2c63)c54)c(=O)[nH]1 [Compound 3],> 5,> 2.5,,,,
Cn1cc(C#Cc2ccc3c4cccc5cccc(c6cccc2c63)c54)c(=O)n(C)c1=O [Compound 4],2.06,0.406,0.406,,,
CC(C)(C)C(=O)OCn1c(=O)c(C#Cc2ccc3c4cccc5cccc(c6cccc2c63)c54)cn(CC(=O)O)c1=O [Compound 5],> 5,~2,2.05,,,
CC(C)(C)C(=O)OCn1c(=O)c(C#Cc2ccc3c4cccc5cccc(c6cccc2c63)c54)cn(CC(=O)NCCCCO)c1=O [Compound 6],0.781,0.0915,,,,
CC(C)(C)C(=O)OCn1c(=O)c(C#Cc2ccc3c4cccc5cccc(c6cccc2c63)c54)cn(CC(=O)NC[C@@H](O)C(C)(C)CO)c1=O [Compound 7],1.17,0.417,,,complete inhibition,
CCCCNC(=O)Cn1cc(C#Cc2ccc3c4cccc5cccc(c6cccc2c63)c54)c(=O)n(COC(=O)C(C)(C)C)c1=O [Compound 8],> 5,~2,,,,
CC(C)(C)C(=O)OCn1c(=O)c(C#Cc2ccc3c4cccc5cccc(c6cccc2c63)c54)cn(CC(=O)NCCO)c1=O [Compound 9],0.781,0.14,,,,
CC(C)(C)C(=O)OCn1c(=O)c(C#Cc2ccc3c4cccc5cccc(c6cccc2c63)c54)cn(CC(=O)NCCCO)c1=O [Compound 10],1.93,0.382,,,,
CC(C)(C)C(=O)OCn1c(=O)c(C#Cc2ccc3c4cccc5cccc(c6cccc2c63)c54)cn(CC(=O)NCCCCCO)c1=O [Compound 11],1.07,0.433,,,,
CC(C)(C)C(=O)OCn1c(=O)c(C#Cc2ccc3c4cccc5cccc(c6cccc2c63)c54)cn(CC(=O)NCCCCCCO)c1=O [Compound 12],> 5,0.812,0.812,,,
CC(C)(C)C(=O)OCn1c(=O)c(C#Cc2ccc3c4cccc5cccc(c6cccc2c63)c54)cn(CC(=O)N(CCO)CCO)c1=O [Compound 13],0.622,0.274,,efficiently inhibited,complete inhibition,
CN(C)c1ccc(C#Cc2ccc3c4cccc5cccc(c6cccc2c63)c54)cc1 [Compound 14],> 5,> 2.5,,,,
CC(=O)Nc1ccc(C#Cc2ccc3c4cccc5cccc(c6cccc2c63)c54)cc1 [Compound 15],0.325,0.063,0.0631,,,
O=C(O)c1ccc(-c2ccc3c4cccc5cccc(c6cccc2c63)c54)s1 [Compound 16],2.56,0.536,0.537,,,
O=C(NCCCCO)c1ccc(-c2ccc3c4cccc5cccc(c6cccc2c63)c54)s1 [Compound 17],< 0.004,< 0.004,,efficiently inhibited,,strongest virucidal effect
O=C(c1ccc(-c2ccc3c4cccc5cccc(c6cccc2c63)c54)s1)N(CCO)CCO [Compound 18],0.132,0.019,0.0191,,,
CCCCNC(=O)c1ccc(-c2ccc3c4cccc5cccc(c6cccc2c63)c54)s1 [Compound 19],0.47,0.098,0.0982,,,
O=C(O)c1ccc2c3cccc4cccc(c5cccc1c52)c43 [Compound 20],> 5,> 2.5,,,,
